Source: ChEMBL document CHEMBL5465560, “Selectivity Literature for EUbOPEN Chemogenomic Library” (2024)

How the values were obtained:
[1] = biological target: Macrophage colony-stimulating factor 1 receptor (Homo sapiens) (UniProt P07333); experiment: Selectivity interaction (KinomeScan (DiscoverX)) EUB0001049a CSF1R; conditions: at 1 µM
[2] = biological target: Serine/threonine-protein kinase PLK3 (Homo sapiens, UniProt Q9H4B4); experiment: Selectivity interaction (KinomeScan (DiscoverX)) EUB0000666a PLK3; conditions: at 10 µM
[3] = biological target: T1, Myosin light chain kinase (Homo sapiens) (UniProt Q32MK0); experiment: Selectivity interaction (KinomeScan (DiscoverX)) EUB0000229b MYLK3; conditions: at 10 µM
T1 sequence (whole entry): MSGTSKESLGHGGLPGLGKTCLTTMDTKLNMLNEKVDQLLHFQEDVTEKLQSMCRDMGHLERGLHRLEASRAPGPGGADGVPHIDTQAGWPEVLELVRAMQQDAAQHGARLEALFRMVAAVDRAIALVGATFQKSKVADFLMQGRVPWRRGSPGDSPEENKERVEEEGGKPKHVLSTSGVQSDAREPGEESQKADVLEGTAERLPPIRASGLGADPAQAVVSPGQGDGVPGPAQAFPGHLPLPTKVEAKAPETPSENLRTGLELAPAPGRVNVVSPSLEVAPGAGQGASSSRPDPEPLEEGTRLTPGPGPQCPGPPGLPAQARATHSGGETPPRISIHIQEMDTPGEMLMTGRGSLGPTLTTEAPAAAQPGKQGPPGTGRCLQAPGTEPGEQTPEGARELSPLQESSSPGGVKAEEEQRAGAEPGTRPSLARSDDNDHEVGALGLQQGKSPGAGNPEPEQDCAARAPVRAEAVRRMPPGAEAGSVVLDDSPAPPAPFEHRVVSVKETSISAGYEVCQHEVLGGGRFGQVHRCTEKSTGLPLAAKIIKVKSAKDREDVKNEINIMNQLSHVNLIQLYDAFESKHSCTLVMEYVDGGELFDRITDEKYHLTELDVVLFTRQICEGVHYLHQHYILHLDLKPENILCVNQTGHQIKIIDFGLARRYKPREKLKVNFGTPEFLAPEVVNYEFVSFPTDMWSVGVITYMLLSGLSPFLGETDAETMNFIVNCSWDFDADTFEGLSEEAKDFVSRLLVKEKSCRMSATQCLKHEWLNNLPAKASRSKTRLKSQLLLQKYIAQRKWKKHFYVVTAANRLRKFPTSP

[4] = biological target: Ribosomal protein S6 kinase alpha-6 (Homo sapiens, UniProt Q9UK32); experiment: Selectivity interaction (KinomeScan (DiscoverX)) EUB0000229b RPS6KA6; conditions: at 10 µM
[5] = biological target: Serine/threonine-protein kinase 32B (Homo sapiens) (UniProt Q9NY57); experiment: Selectivity interaction (KinomeScan (DiscoverX)) EUB0001079a STK32B; conditions: at 1 µM
[6] = system: T2, Receptor-type tyrosine-protein kinase FLT3 (Homo sapiens), P36888 [N841I]; conditions: at 10 µM
T2 sequence (whole entry): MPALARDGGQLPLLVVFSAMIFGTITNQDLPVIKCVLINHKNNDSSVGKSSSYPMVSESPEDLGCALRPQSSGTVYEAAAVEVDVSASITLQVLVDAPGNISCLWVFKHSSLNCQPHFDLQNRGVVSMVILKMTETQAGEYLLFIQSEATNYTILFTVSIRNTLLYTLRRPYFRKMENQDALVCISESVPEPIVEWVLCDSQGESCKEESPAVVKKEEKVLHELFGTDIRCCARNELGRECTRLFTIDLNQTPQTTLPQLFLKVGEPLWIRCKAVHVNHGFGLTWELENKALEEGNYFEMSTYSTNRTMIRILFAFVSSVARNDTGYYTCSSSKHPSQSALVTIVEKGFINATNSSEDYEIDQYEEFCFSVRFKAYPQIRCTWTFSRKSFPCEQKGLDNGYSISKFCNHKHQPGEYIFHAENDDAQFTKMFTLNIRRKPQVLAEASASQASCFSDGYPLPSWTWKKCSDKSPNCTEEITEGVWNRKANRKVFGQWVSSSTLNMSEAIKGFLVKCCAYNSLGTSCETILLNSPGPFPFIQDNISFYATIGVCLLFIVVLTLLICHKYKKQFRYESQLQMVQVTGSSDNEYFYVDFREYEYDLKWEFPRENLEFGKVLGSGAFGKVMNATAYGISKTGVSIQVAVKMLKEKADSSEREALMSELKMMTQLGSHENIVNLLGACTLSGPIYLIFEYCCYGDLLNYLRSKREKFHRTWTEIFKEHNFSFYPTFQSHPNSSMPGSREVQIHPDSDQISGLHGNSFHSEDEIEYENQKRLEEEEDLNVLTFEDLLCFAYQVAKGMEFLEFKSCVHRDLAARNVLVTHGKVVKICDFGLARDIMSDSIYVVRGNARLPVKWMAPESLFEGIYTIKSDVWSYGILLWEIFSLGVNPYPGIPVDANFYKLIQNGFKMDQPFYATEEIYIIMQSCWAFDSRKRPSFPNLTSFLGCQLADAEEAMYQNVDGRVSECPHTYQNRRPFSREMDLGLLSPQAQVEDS

[7] = biological target: T3, Aurora kinase A (Homo sapiens) (UniProt O14965); experiment: Selectivity interaction (ActivX KiNativ screen (kinase selectivity in THP-1 cell lysates)) EUB0000639a STK6; format: subcellular; conditions: lysate
T3 sequence (whole entry): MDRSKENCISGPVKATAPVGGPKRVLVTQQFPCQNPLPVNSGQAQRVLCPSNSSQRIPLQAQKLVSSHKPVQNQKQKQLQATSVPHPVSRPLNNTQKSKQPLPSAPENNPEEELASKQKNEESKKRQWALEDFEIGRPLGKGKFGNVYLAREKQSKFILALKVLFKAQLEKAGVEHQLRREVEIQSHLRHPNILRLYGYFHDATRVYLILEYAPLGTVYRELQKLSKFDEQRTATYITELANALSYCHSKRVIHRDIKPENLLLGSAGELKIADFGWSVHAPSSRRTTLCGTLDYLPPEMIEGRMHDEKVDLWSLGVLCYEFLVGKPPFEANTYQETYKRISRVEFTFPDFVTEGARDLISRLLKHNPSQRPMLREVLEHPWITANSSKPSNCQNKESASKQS

[8] = biological target: Casein kinase I isoform gamma-2 (Homo sapiens) (UniProt P78368); conditions: at 10 µM
[9] = biological target: Serine/threonine-protein kinase N2 (Homo sapiens, UniProt Q16513); experiment: Selectivity interaction (Upstate Kinase Profiler service (Millipore)) EUB0000056c PKN2; conditions: at 1 µM
[10] = biological target: Ribosomal protein S6 kinase alpha-3 (Homo sapiens, UniProt P51812); experiment: Selectivity interaction (Kinase panel (Z-LYTE Assay)) EUB0001632a RPS6KA3; conditions: at 10 µM
Sequence of Ribosomal protein S6 kinase alpha-3 (P51812 whole entry): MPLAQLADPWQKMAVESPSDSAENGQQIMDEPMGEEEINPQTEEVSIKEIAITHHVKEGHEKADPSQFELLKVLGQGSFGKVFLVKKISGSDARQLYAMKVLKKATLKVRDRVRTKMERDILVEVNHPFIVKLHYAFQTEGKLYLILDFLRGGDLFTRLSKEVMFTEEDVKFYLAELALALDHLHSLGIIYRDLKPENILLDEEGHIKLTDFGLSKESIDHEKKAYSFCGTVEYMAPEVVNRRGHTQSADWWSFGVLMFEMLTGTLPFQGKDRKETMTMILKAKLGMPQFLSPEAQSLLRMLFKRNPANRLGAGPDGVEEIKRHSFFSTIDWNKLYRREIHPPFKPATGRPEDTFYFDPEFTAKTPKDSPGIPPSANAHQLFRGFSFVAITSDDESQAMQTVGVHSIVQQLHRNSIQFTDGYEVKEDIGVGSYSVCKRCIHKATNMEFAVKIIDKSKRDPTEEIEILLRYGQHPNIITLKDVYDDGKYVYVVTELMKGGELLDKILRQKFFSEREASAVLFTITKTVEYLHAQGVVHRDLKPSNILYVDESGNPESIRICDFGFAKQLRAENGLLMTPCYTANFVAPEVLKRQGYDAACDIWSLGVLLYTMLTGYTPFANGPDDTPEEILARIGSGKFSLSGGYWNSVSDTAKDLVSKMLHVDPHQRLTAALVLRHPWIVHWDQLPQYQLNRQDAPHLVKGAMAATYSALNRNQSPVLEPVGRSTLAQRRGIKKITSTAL

Sequence of Serine/threonine-protein kinase 32B (Homo sapiens) (Q9NY57 whole entry): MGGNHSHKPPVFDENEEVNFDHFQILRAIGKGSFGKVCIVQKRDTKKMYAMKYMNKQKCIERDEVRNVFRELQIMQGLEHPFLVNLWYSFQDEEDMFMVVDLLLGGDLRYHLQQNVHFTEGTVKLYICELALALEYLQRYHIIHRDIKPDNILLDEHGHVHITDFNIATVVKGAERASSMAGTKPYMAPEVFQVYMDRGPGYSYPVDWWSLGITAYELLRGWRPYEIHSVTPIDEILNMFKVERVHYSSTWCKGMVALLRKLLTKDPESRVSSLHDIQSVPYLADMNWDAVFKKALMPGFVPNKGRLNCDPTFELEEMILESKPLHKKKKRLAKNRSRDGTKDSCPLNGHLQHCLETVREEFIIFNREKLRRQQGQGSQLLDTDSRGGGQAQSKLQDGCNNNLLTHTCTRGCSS
Sequence of Casein kinase I isoform gamma-2 (Homo sapiens) (P78368 whole entry, looked up, canonical isoform): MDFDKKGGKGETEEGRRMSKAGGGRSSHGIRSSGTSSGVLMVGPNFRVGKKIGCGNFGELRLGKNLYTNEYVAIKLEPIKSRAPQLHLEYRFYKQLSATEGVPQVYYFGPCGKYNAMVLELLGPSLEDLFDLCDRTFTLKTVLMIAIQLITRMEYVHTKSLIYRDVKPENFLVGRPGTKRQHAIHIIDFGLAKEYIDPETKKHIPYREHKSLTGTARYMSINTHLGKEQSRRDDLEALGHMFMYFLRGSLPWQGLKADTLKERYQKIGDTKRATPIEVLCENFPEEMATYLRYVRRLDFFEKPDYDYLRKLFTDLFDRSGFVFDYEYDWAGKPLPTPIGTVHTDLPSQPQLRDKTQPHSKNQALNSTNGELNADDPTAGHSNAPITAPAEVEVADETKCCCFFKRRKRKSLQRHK
Sequence of Serine/threonine-protein kinase PLK3 (Q9H4B4 whole entry, looked up): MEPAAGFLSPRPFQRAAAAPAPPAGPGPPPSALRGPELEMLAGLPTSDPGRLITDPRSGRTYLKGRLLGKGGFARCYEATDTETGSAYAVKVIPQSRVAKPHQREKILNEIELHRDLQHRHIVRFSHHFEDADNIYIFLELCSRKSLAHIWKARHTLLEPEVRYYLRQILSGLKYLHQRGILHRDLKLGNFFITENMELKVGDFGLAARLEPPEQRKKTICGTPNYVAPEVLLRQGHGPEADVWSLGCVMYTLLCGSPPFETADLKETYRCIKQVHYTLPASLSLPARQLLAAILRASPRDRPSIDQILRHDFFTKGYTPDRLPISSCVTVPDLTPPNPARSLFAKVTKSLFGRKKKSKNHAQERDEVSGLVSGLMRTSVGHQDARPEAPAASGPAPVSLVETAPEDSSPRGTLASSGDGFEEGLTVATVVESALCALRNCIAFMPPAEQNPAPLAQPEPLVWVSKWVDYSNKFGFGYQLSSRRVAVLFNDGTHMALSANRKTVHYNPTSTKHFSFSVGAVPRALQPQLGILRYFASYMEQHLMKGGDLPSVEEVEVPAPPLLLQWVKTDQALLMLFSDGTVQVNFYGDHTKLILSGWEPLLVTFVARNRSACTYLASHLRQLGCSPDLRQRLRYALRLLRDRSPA
Sequence of Serine/threonine-protein kinase N2 (Q16513 whole entry, looked up): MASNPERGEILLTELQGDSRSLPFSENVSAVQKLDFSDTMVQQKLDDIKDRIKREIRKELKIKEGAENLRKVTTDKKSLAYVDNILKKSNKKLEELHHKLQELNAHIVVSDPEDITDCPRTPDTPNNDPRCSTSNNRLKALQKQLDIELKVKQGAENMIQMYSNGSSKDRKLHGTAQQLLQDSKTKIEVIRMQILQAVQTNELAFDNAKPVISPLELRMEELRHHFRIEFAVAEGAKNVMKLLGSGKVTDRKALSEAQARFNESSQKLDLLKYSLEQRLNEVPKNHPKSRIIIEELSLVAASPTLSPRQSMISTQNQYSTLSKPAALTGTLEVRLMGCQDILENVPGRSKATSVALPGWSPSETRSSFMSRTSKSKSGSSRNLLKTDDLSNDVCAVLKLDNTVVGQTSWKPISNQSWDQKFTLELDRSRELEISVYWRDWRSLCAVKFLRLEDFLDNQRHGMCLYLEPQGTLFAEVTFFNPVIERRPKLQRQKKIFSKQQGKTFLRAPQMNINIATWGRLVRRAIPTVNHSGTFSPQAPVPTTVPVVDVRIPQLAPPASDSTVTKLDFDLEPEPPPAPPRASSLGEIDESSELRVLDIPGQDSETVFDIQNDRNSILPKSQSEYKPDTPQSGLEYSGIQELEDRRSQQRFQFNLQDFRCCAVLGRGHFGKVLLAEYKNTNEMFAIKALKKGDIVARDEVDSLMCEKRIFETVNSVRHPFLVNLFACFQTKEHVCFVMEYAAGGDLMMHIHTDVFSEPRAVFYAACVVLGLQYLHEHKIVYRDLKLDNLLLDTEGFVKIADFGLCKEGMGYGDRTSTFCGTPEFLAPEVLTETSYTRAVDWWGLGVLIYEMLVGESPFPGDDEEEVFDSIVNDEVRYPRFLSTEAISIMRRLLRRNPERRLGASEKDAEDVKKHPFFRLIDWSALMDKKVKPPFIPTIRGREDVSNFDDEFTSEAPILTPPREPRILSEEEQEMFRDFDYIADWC
Sequence of Macrophage colony-stimulating factor 1 receptor (Homo sapiens) (P07333 whole entry): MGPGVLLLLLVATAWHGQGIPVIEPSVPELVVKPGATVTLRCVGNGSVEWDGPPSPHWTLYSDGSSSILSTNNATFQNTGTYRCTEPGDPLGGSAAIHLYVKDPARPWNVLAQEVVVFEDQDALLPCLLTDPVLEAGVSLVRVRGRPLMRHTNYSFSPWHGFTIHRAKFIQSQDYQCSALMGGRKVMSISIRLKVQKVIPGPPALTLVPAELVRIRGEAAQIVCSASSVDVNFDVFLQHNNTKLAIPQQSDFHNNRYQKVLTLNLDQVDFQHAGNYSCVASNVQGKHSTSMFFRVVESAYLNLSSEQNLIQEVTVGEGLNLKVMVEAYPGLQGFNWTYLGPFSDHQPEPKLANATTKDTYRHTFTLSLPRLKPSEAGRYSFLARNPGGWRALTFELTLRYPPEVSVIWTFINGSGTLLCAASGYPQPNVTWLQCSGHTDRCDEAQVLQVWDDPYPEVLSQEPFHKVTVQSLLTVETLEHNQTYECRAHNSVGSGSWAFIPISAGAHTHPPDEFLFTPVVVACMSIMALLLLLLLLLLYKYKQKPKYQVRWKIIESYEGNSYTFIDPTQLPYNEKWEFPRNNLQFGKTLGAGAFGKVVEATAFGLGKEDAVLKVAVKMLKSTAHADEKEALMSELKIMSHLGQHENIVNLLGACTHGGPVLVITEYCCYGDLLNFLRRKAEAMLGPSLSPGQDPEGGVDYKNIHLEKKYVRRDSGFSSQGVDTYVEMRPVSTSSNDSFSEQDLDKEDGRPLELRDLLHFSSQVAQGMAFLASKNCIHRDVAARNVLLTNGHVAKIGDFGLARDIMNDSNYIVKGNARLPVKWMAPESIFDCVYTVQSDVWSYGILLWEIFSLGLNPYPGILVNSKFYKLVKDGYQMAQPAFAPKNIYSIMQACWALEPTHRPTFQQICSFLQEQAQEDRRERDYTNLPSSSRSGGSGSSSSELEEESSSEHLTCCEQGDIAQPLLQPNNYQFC
Sequence of Ribosomal protein S6 kinase alpha-6 (Q9UK32 whole entry): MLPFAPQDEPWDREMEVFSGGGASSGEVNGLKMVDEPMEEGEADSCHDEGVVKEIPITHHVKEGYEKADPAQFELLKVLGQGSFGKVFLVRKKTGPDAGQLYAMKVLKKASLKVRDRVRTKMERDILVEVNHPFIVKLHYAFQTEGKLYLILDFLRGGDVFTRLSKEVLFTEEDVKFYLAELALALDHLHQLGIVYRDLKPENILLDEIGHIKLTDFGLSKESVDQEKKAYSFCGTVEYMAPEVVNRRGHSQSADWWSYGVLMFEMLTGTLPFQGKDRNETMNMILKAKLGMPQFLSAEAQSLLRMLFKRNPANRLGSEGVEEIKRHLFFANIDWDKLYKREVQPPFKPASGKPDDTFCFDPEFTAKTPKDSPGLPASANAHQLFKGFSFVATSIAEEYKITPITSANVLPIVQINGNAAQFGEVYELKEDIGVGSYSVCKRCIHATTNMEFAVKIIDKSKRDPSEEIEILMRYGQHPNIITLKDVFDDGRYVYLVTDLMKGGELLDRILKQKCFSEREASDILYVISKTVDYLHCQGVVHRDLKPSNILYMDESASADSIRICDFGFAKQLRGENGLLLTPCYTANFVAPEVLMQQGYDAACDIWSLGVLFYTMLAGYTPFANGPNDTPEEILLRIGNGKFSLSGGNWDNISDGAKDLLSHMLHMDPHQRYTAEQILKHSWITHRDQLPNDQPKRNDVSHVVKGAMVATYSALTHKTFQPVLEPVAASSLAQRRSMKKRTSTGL

Structure (SMILES): COc1cc(Nc2nc(C)cc(-c3cnn4nc(OC)ccc34)n2)cc(C(F)(F)F)c1
- % of control [1]: 100%

Structure (SMILES): O=C(NOC[C@H](O)CO)c1ccc(F)c(F)c1Nc1ccc(I)cc1F
- % of control [2]: 100%

Structure (SMILES): COc1cc(N(C)c2ccnc3ccc(C(F)(F)F)cc23)cc(OC)c1OC
- % binding [3]: 100%
- % binding [4]: 74%

Structure (SMILES): Nc1cnc(N2CCc3cc(S(=O)(=O)Nc4c(F)cc(Cl)cc4F)cc(N4CCCC4=O)c32)nc1 [TP-020n]
- % of control [5]: 74%

Structure (SMILES): CCN(CC)CCCCNc1ncc2cc(-c3cc(OC)cc(OC)c3)c(NC(=O)NC(C)(C)C)nc2n1
- % of control [6]: 100%

Structure (SMILES): CC[C@@H]1[C@H](F)C(=O)N[C@@H]1COc1nccc2cc(C(N)=O)c(OC)cc12 [ZIMLOVISERTIB]
- % of inhibition ([7]; at 0.01 µM): -0.7%
- % of inhibition ([7]; at 0.04 µM): -2.4%
- % of inhibition ([7]; at 0.2 µM): 2.8%
- % of inhibition ([7]; at 1 µM): 26.7%
- % of inhibition ([7]; at 5 µM): 59.9%

Structure (SMILES): COCC(=O)NC/C=C/c1ccc2ncnc(Nc3ccc(Oc4ccc(C)nc4)c(C)c3)c2c1 [CP-724714]
- % of control [8]: 100%

Structure (SMILES): Cc1ccc(-c2ccc3c(ccc4sc5c(c43)NC[C@@H](C)NC5=O)n2)cn1
- % of inhibition [9]: -8%

Structure (SMILES): Cn1cc(-n2cnc3c(NCc4nc5cc(Cl)c(Cl)cc5[nH]4)nc(N4CCOCC4)nc32)cn1
- % of control [10]: 4.92%
